# T1: AtDpe (ketose 3-epimerase) (Agrobacterium fabrum, UniProt A9CH28)
# T1 sequence (A9CH28 whole entry, looked up): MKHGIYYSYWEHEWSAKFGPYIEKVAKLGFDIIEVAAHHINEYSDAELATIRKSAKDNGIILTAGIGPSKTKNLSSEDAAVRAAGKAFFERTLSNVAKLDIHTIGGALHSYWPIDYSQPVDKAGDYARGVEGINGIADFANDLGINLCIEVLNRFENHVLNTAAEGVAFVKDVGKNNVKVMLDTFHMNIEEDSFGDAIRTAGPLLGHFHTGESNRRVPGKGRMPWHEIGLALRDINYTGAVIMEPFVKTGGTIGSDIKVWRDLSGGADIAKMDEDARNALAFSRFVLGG
# B1: BpRpiB: D-ribose-5-phosphate isomerase derived from Bacteroides plebeius, SEQ ID NO: 5 (protein)
# chain: MKTIGLASDHAGFELKQYVKKWLEAKGWEYKDFGTYTTDSCDYPDFAHPLALAVENGECYPGIAICGSGEGIGITLNKHQGIRAALCWIPEIAHLARQHNNANVLVMPGRFIDEAMADKIMTEFFTTDFEGGRHQARIDKIPVR
# modifications: BpRpiB
# B2: AtDpe: ketose 3-epimerase derived from Agarobacterium tumefaciens, SEQ ID NO: 3 (protein)
# chain: MKHGIYYSYWEHEWSAKFGPYIEKVAKLGFDIIEVAAHHINEYSDAELATIRKSAKDNGIILTAGIGPSKTKNLSSEDAAVRAAGKAFFERTLSNVAKLDIHTIGGALHSYWPIDYSQPVDKAGDYARGVEGINGIADFANDLGINLCIEVLNRFENHVLNTAAEGVAFVKDVGKNNVKVMLDTFHMNIEEDSFGDAIRTAGPLLGHFHTGESNRRVPGKGRMPWHEIGLALRDINYTGAVIMEPFVKTGGTIGSDIKVWRDLSGGADIAKMDEDARNALAFSRFVLGG
# modifications: AtDpe
# Tests used:
# [1] = tested on: BpXylA (xylose isomerase); experiment: Effect of metal ions on the activity of BpXylA; format: biochemical, Bacteroides plebeius; settings: pre-incubation 4° C. 20 minutes; control: no metal ions added
# Method: (§1) To investigate the optimal reaction conditions for BpXylA, the effects of optimal reaction temperature, pH, and metal ions were examined. The standard reaction conditions for BpXylA were set to a reaction with 1.09 U/ml BpXylA in 50 mM sodium phosphate (pH 7.0) buffer containing 10 mM D-xylose and 1 mM Mg^2+ at 50° C. for 10 minutes. The optimal reaction conditions for BpXylA described below were all determined by experiments under the standard reaction conditions.
# (§2) First, in order to determine the optimal temperature conditions for BpXylA, the reaction was performed under standard reaction conditions at various temperature conditions. […] In order to determine the optimal pH of BpXylA, the reaction was performed while varying the pH using various buffer solutions.
# [2] = tested on: BpXylA (xylose isomerase); experiment: Effect of metal ions on the thermal stability of BpXylA; format: biochemical, Bacteroides plebeius; settings: 1 mM metal ion; for Relative activity of BpXylA over time with metal ion: 50° C. (Mg^2+: 50° C. or higher), up to 90 minutes
# Method: To investigate this, the culture was performed with each metal ion corresponding to a concentration of 1 mM together with the enzymes under various temperature conditions. As a result, as shown in [FIG. 4], higher thermal stability was found when the culture was performed with metal ions than when it was performed without metal ions. […] [(b) of FIG. 4 and (c) of FIG. 4].
# [3] = target: EcPpk (polyphosphate kinase) (Escherichia coli, UniProt P0A7B1); settings: pre-incubation 4° C. 20 minutes; control: no metal ions added
# Method: As a result, the highest activity was found at 50° C., as shown in [(a) of FIG. 10]. […] As a result, the highest activity was found in a sodium phosphate buffer (pH 7.0), as shown in [(b) of FIG. 10]. […] The decrease in enzyme activity was calculated by calculating the decrease in relative activity due to heat treatment, using the activity of the enzyme that was not allowed to stand as a control. […] [(d) of FIG. 10].
# EcAraB (L-ribulokinase) [4] = target: T2, EcAraB (L-ribulokinase) (Escherichia coli, UniProt P08204); experiment: Effect of metal ions on the activity of EcAraB; format: biochemical; parameters: His tag (inferred: pET21a, NotI reverse primer without stop codon, HisTrap purification) (C); T7 tag and vector leader of pET21a (own knowledge: in-frame insertion at SacI keeps the vector's N-terminal leader) (N); made in house; host or cells: E. coli BL21 (DE3); settings: pre-incubation 4° C. 20 minutes; control: no metal ions added
# Method: To determine the optimal reaction conditions for EcAraB, the optimal reaction temperature, pH, metal ion effects, and thermal stability were examined. […] The amount (mg) of EcAraB that produces 1 μmol of D-ribulose-5-phosphate per minute was defined as one unit.
# As a result, as shown in [(a) of FIG. 9], the highest activity was found at 50° C. In order to determine the optimal pH conditions for EcAraB, the reaction was performed while varying the pH using various buffer solutions. […] [(d) of FIG. 9].
# [5] = tested on: BpRpiB (D-ribose-5-phosphate isomerase); experiment: Effect of metal ions on the activity of BpRpiB; format: biochemical, Bacteroides plebeius; settings: pre-incubation 4° C. 20 minutes; control: no metal ions added
# Method: (§3) To determine the optimal reaction conditions for BpRpiB, the optimal reaction temperature, pH, metal ion effects, and thermal stability were examined. […] The amount (mg) of BpRpiB that produces 1 μmol of D-ribulose per minute was defined as one unit.
# (§4) First, in order to determine the optimal temperature conditions for BpRpiB, the reaction was performed under standard reaction conditions at various temperature conditions. […] In order to investigate the optimal pH for the activity of BpRpiB, the reaction was performed by changing the pH using various buffer solutions. […] [(d) of FIG. 5].
# [6] = tested on: BpXylA (xylose isomerase); experiment: Substrate specificity of BpXylA; format: biochemical, Bacteroides plebeius; settings: substrate 2 mM, standard reaction conditions (50 mM sodium phosphate pH 7.0, 1 mM Mg^2+, 50° C., 10 minutes); based on the activity for D-xylose
# Method: as §1
# In order to determine whether BpXylA used in the present invention is a suitable enzyme for producing D-ribose from D-xylose, the substrate specificity of BpXylA for various aldo- and keto-sugars was examined [Table 1]. The experiment was conducted using various aldo- and keto-sugars as substrates at a concentration of 2 mM under the standard reaction conditions, and the relative activity against other substrates was shown based on the activity for D-xylose. […] Therefore, BpXylA is sufficiently applicable for producing D-ribose from D-xylose in the present invention.
# [7] = tested on: BpRpiB (D-ribose-5-phosphate isomerase); experiment: Substrate specificity of BpRpiB; format: biochemical, Bacteroides plebeius; settings: substrate 2 mM, standard reaction conditions (50° C., 10 minutes)
# Excerpt: as §3
# BpRpiB used in the present invention is known to be an enzyme that converts the substrate D-ribulose-5-phosphate, which is originally a phosphorylated sugar, into D-ribose-5-phosphate. Therefore, in the present invention, in order to confirm the activity of BpRpiB for D-ribose and D-ribulose as well as D-ribulose-5-phosphate and D-ribose-5-phosphate, which are the original substrates of BpRpiB, the substrate specificity of BpRpiB for various aldo- and keto-sugars was examined [Table 2]. The experiment was performed using various aldo- and keto-sugars as substrates at a concentration of 2 mM under standard reaction conditions, and the relative activity against other substrates was expressed based on the activity against D-xylose. […] Therefore, in the present invention, in order to produce D-ribose from D-xylose, BpRpiB is sufficiently applicable as an enzyme that converts D-ribulose into D-ribose, which is the final reaction step of the multi-enzyme process.
# EcAraB (L-ribulokinase) [8] = target: T2, EcAraB (L-ribulokinase); settings: previous study; cited from earlier work
# [9] = tested on: BpXylA (xylose isomerase); experiment: Optimal reaction temperature and pH of BpXylA; format: biochemical, Bacteroides plebeius
# Method: as §1, §2
# [10] = tested on: BpXylA (xylose isomerase); experiment: Thermal stability of BpXylA; format: physicochemical, Bacteroides plebeius
# [11] = tested on: BpRpiB (D-ribose-5-phosphate isomerase); experiment: Thermal stability of BpRpiB; format: physicochemical, Bacteroides plebeius
# Method: as §3, §4
# [12] = target: T1, AtDpe (ketose 3-epimerase); settings: 50° C. compared to 45° C.; previous study; cited from earlier work
molecule,measurement,setting,value
[Co+2] [Co^2+],Effect of metal ion on enzyme activity,[1],significantly increased
same,Relative activity of BpXylA over time with metal ion,[2],stably maintained
same,Relative activity with metal ion added,[3],176.14±24.10%
same,Relative activity with metal ion added,EcAraB (L-ribulokinase) [4],435.51±110.20%
[Cu+2] [Cu^2+],Effect of metal ion on enzyme activity,[5],significantly inhibited
O=C[C@@H](O)[C@H](O)[C@H](O)CO [D-Arabinose],Relative activity (%),[6],Not detected
same,Relative activity (%),[7],Not detected
O=C(CO)[C@@H](O)[C@H](O)[C@H](O)CO [D-Fructose],Relative activity (%),[6],Not detected
same,Relative activity (%),[7],Not detected
O=C[C@H](O)[C@@H](O)[C@H](O)[C@H](O)CO [D-Glucose],Relative activity (%),[6],Not detected
same,Relative activity (%),[7],Not detected
O=C[C@@H](O)[C@@H](O)[C@H](O)[C@H](O)CO [D-Mannose],Relative activity (%),[6],Not detected
same,Relative activity (%),[7],Not detected
O=C[C@H](O)[C@H](O)[C@H](O)COP(=O)(O)O [D-Ribose-5-phosphate],Relative activity (%),[7],933.9 ± 11.7%
O=C[C@H](O)[C@H](O)[C@H](O)CO [D-Ribose],Relative activity (%),[6],33.2 ± 1.1%
same,Relative activity (%),[7],79.1 ± 0.4%
O=C(CO)[C@H](O)[C@H](O)COP(=O)(O)O [D-Ribulose-5-phosphate],Relative activity (%),[7],924.4 ± 33.7%
O=C(CO)[C@H](O)[C@H](O)CO [D-Ribulose],Relative activity (%),[6],13.9 ± 13.8%
same,Relative activity (%),[7],100 ± 4.8%
O=C(CO)[C@@H](O)[C@@H](O)[C@H](O)CO [D-Tagatose],Relative activity (%),[6],Not detected
same,Relative activity (%),[7],Not detected
O=C[C@H](O)[C@@H](O)[C@H](O)CO [D-Xylose],Relative activity (%),[6],100 ± 2.2%
same,Relative activity (%),[7],Not detected
O=C(CO)[C@@H](O)[C@H](O)CO [D-Xylulose],Relative activity (%),[6],156.5 ± 2.2%
same,Relative activity (%),[7],Not detected
same,Activity relative to the activity against D-ribulose,EcAraB (L-ribulokinase) [8],2.44%
O=C[C@H](O)[C@@H](O)[C@@H](O)CO [L-Arabinose],Relative activity (%),[6],Not detected
same,Relative activity (%),[7],Not detected
O=C(CO)[C@@H](O)[C@H](O)[C@@H](O)CO [L-Sorbose],Relative activity (%),[6],Not detected
same,Relative activity (%),[7],Not detected
[Mg+2] [Mg^2+],Effect of metal ion on enzyme activity,[1],significantly increased
same,Relative activity with metal ion added,[1],876.98±35.30%
same,Relative activity of BpXylA over time with metal ion,[2],decreased over time
same,Thermal stability of BpXylA with metal ion,[2]; versus without metal ions,thermal stability increased
same,Relative activity with metal ion added,[3],202.12±7.46%
same,Relative activity with metal ion added,EcAraB (L-ribulokinase) [4],614.62±42.14%
[Mn+2] [Mn^2+],Effect of metal ion on enzyme activity,[1],significantly increased
same,Relative activity of BpXylA over time with metal ion,[2],stably maintained
same,Relative activity of BpXylA with metal ion,[2]; 60° C.,stable
same,Relative activity with metal ion added,[3],161.48±5.53%
same,Relative activity with metal ion added,EcAraB (L-ribulokinase) [4],286.47±21.62%
[Zn+2] [Zn^2+],Effect of metal ion on enzyme activity,[5],significantly inhibited
"BpXylA: xylose isomerase derived from Bacteroides plebeius, SEQ ID NO: 1",Optimal pH,[9]; sodium phosphate buffer,7.0
same,Optimal temperature for enzyme activity,"[9]; standard reaction conditions, various temperatures",50 °C
same,Enzyme activity after heat treatment,"[10]; 40° C., up to 90 minutes",did not significantly decrease
same,Relative activity after heat treatment,"[10]; 50° C. for 15 minutes, control: enzyme not allowed to stand",about 29.29±1.43%
B1,Activity after heat treatment,[11]; 70° C.,rapidly decreased
same,Overall activity after heat treatment,[11]; up to 60° C.,stable
B2,Thermal stability,[12],decreased rapidly
